Here are results for one molecule from US20250002473A1, “QUINOXALINE DERIVED SULFONAMIDES WITH EGFR DEGRADATION ACTIVITIES AND THEIR USES THEREOF” (Accutar Biotechnology Inc., priority 2023, published 2025).

Holding throughout (type): cell-based
The test system of one assay is BaF3_SVD. In words: Cell growth inhibition assay (CellTiter-Glo), BaF3_SVD. The protocol:
(§1) Cells were seeded in a 96-well plate (Corning 3610) with 90 μL of culture medium per well, and plates were incubated at 37° C. overnight. A 1,000× DMSO stock solution of the desired compound was prepared the following day. A compound dilution plate was prepared by diluting the stock solution 1:100 in the corresponding cell culture medium, 10 μL of the diluted compound solution was added to each 96-well plate well containing the seeded cells. Then, the cells were cultured at 37° C. for three days following compound treatment, 100 μL of CellTiter-Glo reagents (Promega G7573) was added to each well of the 96-well plate. The content of the wells was mixed by shaking continuously for 10 min, and luminescence was measured using Envision (PerkinElmer). The data were analyzed with GraphPad Prism 9 (see FIG. 50).
(§2) Table 6, Table 7, and Table 8 list the cell growth inhibition results, where Gls0 represents the compound concentration to cause 50% cell growth inhibition in comparison with DMSO.

Another assay deals with BaF3_ASV. In words: Cell growth inhibition assay (CellTiter-Glo), BaF3_ASV. Particulars: for GI50: BaF3_ASV cells.
The test system of another assay is BaF3_YVMA. In words: Cell growth inhibition assay (CellTiter-Glo), BaF3_YVMA. As to the method: as §1, with “Then, the cells were cultured at 37° C. for three days following compound treatment, 100 μL of CellTiter-Glo reagents (Promega G7573) was added to each well of the 96-well plate.” left out
as §2

Assay [1] deals with T1, BaF3_ASV (EGFR_A776inASV) (Homo sapiens, UniProt P00533, DUP767-769).
T1 construct: expressed in transfected cells; host or cells: Ba/F3 (engineered)
The assay is described as follows: EGFR degradation assay (western blot), BaF3_ASV cells. Particulars: for DC50: BaF3_ASV cells. Put shortly:
(§3)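 Cells seeded overnight, then exposed to compounds for 24 h; lysates run on western blot, EGFR probed with tubulin loading control and fluorescent secondary detection. DC50 = concentration giving 50% EGFR degradation.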

A further assay concerns BaF3_DTC. The assay is described as follows: Cell growth inhibition assay (CellTiter-Glo), BaF3_DTC.
For another assay, the system named is A431. In words: Cell growth inhibition assay (CellTiter-Glo), A431. As to conditions: Homo sapiens, A431 cells. In outline:
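Cells were plated in 96-well plates (Corning 3610) at 90 μL of culture medium per well and incubated overnight at 37° C. The next day, a 1,000× DMSO compound stock was diluted 1:100 in cell culture medium, and 10 μL was added per well. After shaking for 10 min, luminescence was read on an Envision (PerkinElmer) reader.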

Another assay concerns NCI-H292. The assay is described as follows: Cell growth inhibition assay (CellTiter-Glo), NCI-H292. Particulars: Homo sapiens; Table 7; NCI-H292 cells; head prints 24 h. The protocol:
as §1, with “Then, the cells were cultured at 37° C. for three days following compound treatment, 100 μL of CellTiter-Glo reagents (Promega G7573) was added to each well of the 96-well plate.” left out
as §2

For assay [2], the system named is BaF3_DTC (EGFR_Exon19del/T790M/C797S). In words: EGFR degradation assay (western blot), BaF3_DTC cells. Put shortly: as §3
The next assay addresses T2, NCl-H292 (EGFR_WT) (Homo sapiens, UniProt P00533).
T2 construct: endogenous in cells; host or cells: A431, NCI-H2073, NCI-H292
The assay is described as follows: EGFR degradation assay (western blot), NCl-H292 cells. Particulars: Table 5; NCI-H292 cells (EGFR_WT), 24 h. The protocol: A431 (EGFR_WT), NCl-H2073 (EGFR_WT), NCl-H292 (EGFR_WT), BaF3_YVAM (Her2_A775insYVAM), BaF3_SVD (EGFR_D770insSVD), BaF3_ASV (EGFR_A776inASV), or BaF3_DTC (EGFR_Exon19del/T790M/C797S) cells were seeded in a 24-well plate at a density of 4×10^5 cells per well for EGFR WT cells and 8× cells per well for EGFR or Her2 mutant cells, and the plates were incubated overnight. The cells were treated with the desired compounds for 24 h. The culture medium was removed, and 100 μL of RIPA buffer (Beyotime, P0013B) containing 1% Protease Inhibitor Cocktail (Bimake, B14001), 1% Phosphatase Inhibitor Cocktail 2 (Sigma, P5726), and 1% Phosphatase Inhibitor Cocktail 3 (Sigma, P0044) were added to lyse the cells. Then, the cell lysates were transferred to 1.5 mL microcentrifuge tubes and centrifuged at 12,000 rpm and 4° C. for 30 min. The supernatants were transferred into new tubes, and the protein concentration was determined using the BCA protein quantification method. All samples were diluted to the same concentration using RIPA buffer, loading buffer was added, samples were denatured, and 15 μg of protein per lane was loaded onto a SurePAGE 4-20% Bis-Tris gel. Samples were separated via electrophoresis in MOPS running buffer at 180 V for 100 min. […] Fluorescence was detected using the Odyssey CLx Imaging System, and the data were analyzed with Empiria Studio Software and GraphPad Prism 9. […]

Where [3] appears, read: BaF3_ASV, comparison with Compound A, in words.

The structures appear in SMILES notation. Read-outs that look alike come from different tables or passages of the source.

T1 sequence (P00533 with tags, fused parts or gaps DUP767-769): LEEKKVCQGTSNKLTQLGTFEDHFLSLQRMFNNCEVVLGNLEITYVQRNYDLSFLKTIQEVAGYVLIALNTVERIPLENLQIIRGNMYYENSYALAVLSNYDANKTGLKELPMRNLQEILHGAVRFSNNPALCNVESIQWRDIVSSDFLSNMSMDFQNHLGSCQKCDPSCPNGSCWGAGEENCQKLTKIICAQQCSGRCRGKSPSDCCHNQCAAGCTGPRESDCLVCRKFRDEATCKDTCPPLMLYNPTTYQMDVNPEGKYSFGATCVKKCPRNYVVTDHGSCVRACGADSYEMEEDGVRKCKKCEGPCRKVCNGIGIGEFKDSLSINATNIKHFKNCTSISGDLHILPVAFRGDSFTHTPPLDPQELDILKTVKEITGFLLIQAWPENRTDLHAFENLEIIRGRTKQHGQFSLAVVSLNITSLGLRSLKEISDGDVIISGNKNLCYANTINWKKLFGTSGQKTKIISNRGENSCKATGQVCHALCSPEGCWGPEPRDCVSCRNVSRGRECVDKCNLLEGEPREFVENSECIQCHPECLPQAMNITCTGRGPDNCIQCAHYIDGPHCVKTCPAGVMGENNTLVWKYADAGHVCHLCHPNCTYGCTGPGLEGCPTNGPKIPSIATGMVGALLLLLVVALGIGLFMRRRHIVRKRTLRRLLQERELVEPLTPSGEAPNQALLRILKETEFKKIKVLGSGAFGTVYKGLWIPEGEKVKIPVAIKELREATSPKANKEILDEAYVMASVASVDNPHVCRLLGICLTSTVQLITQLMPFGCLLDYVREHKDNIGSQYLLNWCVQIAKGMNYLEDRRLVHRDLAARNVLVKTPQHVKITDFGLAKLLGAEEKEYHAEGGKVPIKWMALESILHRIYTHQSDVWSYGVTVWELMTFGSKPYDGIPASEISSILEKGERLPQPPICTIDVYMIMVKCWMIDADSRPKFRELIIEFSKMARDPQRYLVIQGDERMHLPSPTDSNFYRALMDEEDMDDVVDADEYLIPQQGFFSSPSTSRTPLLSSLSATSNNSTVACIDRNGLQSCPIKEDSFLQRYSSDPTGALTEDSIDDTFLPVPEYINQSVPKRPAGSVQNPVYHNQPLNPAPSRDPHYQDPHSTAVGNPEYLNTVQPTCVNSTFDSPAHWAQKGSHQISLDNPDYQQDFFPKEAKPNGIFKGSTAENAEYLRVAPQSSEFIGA
T2 sequence (P00533 25-1210): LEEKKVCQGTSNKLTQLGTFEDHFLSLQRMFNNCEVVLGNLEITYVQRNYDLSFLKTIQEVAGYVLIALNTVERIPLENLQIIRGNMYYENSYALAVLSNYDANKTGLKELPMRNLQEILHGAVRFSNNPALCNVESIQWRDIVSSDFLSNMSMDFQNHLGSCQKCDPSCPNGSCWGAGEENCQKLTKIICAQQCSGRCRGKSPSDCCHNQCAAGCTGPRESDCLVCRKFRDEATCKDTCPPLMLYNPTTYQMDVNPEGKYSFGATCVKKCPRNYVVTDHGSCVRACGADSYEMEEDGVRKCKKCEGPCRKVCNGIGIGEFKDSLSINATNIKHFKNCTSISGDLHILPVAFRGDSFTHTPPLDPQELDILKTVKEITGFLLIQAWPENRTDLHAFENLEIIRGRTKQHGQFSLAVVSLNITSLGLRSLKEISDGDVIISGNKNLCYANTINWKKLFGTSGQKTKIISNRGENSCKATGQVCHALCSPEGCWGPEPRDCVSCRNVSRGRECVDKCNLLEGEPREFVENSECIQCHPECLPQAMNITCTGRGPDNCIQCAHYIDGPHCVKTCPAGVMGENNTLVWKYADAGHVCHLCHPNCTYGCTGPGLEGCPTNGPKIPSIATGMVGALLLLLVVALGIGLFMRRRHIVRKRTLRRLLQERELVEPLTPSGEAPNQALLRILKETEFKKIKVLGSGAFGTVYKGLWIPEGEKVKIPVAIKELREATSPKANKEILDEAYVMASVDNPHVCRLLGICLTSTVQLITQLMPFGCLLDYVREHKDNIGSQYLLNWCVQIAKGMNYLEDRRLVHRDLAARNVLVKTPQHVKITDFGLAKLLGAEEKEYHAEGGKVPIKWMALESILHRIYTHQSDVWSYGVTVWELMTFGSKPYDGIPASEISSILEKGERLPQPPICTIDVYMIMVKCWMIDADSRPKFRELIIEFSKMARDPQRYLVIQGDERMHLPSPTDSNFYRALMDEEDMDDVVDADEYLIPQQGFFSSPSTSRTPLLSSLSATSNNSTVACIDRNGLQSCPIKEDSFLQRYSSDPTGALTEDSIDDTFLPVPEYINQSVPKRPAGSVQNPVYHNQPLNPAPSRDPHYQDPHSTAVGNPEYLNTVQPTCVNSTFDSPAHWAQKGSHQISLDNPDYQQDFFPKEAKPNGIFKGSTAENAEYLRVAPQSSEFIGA

With `CCc1cc(Nc2ncc(Br)c(Nc3ccc4nccnc4c3NS(C)(=O)=O)n2)c(OC)cc1N1CCC(N2CCN(CCc3cccc4c3n(CC)c(=O)n4C3CCC(=O)NC3=O)CC2)CC1` (stereo not drawn) [Compound 11, N-(6-((5-bromo-2-((4-(4-(4-(2-(1-(2,6-dioxopiperidin-3-yl)-3-ethyl-2-oxo-2,3-dihydro-1H-benzo[d]imidazol-4-yl)ethyl)piperazin-1-yl)piperidin-1-yl)-5-ethyl-2-methoxyphenyl)amino)pyrimidin-4-yl)amino)quinoxalin-5-yl)methanesulfonamide], in the assay with BaF3_SVD (BaF3_SVD, comparison with Compound A, in words), the “Potency in cell growth inhibition compared with Compound A (BaF3_SVD)” value is given as “significantly increased potency”. Besides, the GI50 in the assay with BaF3_SVD (Table 7, BaF3_SVD cells) turned out to be 106 nM; in the assay on BaF3_ASV (72 h, Table 6, three days, CellTiter-Glo, read-out: BaF3_ASV GI50) it was 75.2 nM; in the assay on BaF3_ASV (Table 7, head prints 24 h, read-out: GI50 (nM), 24 h, BaF3_ASV) it was 75.2 nM; with BaF3_YVMA (Table 7, BaF3_YVMA cells, head prints 24 h), 188 nM; in the assay on BaF3_DTC (72 h, Table 6, BaF3_DTC cells, three days, CellTiter-Glo, read-out: BaF3_DTC GI50) it was 6.37 nM; in the assay on BaF3_DTC (Table 7, BaF3_Del19/T790M/C797S cells, head prints 24 h, read-out: GI50 (nM), 24 h, BaF3_Del19/T790M/C797S), 6.37 nM. For the same molecule, the GI50 in the assay on A431 (A-431, 24 h, Table 7, head prints 24 h, read-out: GI50 (nM), 24 h, A431) is 2500 nM; in the assay on A431 (A-431, 72 h, Table 6, three days, CellTiter-Glo, read-out: A431 GI50), above 1000 nM; in the assay with NCI-H292, 436 nM. In addition, the “Potency in cell growth inhibition compared with Compound A (BaF3_ASV)” value in the assay on BaF3_ASV (setting [3]) was “significantly increased potency”. Also, the “Potency in cell growth inhibition compared with Compound A (BaF3_YVMA)” value in the assay on BaF3_YVMA (BaF3_YVMA, comparison with Compound A, in words) was “significantly increased potency”. Besides, the DC50 in assay [1] (compounds 24 h, western blot, read-out: BaF3_ASV DC50) was 22.4 nM; in assay [1] (Table 5, 24 h, read-out: DC50 (nM), 24 h, BaF3_ASV), 22.4 nM; in assay [2] (BaF3_DTC cells (EGFR_Exon19del/T790M/C797S), compounds 24 h, western blot, read-out: BaF3_DTC DC50), 1.2 nM; in assay [2] (Table 5, BaF3_Del19/T790M/C797S cells, 24 h, read-out: DC50 (nM), 24 h, BaF3_Del19/T790M/C797S), 1.2 nM; on NCl-H292 (EGFR_WT), above 1000 nM. Also, in assay [1] (setting [3]), the “Potency in degrading EGFR exon20 insertion mutant form compared with Compound A (BaF3_ASV)” value was “significantly increased potency”.
